Measured values from patent US9198423B2, “Active compound combinations” (BAYER INTELLECTUAL PROPERTY GMBH, priority 2011, dated 2015).

Legend:
Alternaria solani = experiment: Alternaria test (tomatoes)/preventive; format: in vivo, Alternaria solani on tomatoes; conditions: preventive spray, evaluated 3 days after inoculation
Description: Alternaria Test (Tomatoes)/Preventive [table] To produce a suitable preparation of active compound, 1 part by weight of active compound is mixed with the stated amounts of solvent and emulsifier, and the concentrate is diluted with water to the desired concentration. To test for preventive activity, young plants are sprayed with the preparation of active compound at the stated rate of application. After the spray coating has dried on, the plants are inoculated with an aqueous spore suspension of Alternaria solani. The plants are then placed in an incubation cabinet at approximately 20° C. and a relative atmospheric humidity of 100%. The test is evaluated 3 days after the inoculation. 0% means an efficacy which corresponds to that of the untreated control while an efficacy of 100% means that no disease is observed.

Venturia inaequalis = experiment: Venturia test (apples)/preventive; format: in vivo, Venturia inaequalis on apples; conditions: preventive spray, evaluated 10 days after inoculation
Description: Venturia Test (Apples)/Preventive [table] To produce a suitable preparation of active compound, 1 part by weight of active compound is mixed with the stated amounts of solvent and emulsifier, and the concentrate is diluted with water to the desired concentration. To test for preventive activity, young plants are sprayed with the preparation of active compound at the stated rate of application. After the spray coating has dried on, the plants are inoculated with an aqueous conidia suspension of the causal agent of apple scab (Venturia inaequalis) and then remain for 1 day in an incubation cabinet at approximately 20° C. and a relative atmospheric humidity of 100%. The plants are then placed in a greenhouse at approximately 21° C. and a relative atmospheric humidity of approximately 90%. The test is evaluated 10 days after the inoculation. 0% means an efficacy which corresponds to that of the untreated control, while an efficacy of 100% means that no disease is observed.

| Structure (SMILES) | Efficacy in % found (Alternaria solani; application rate 40 ppm a.i.) [%] | Efficacy in % found (Venturia inaequalis; application rate 40 ppm a.i.) [%] | Efficacy in % found (Alternaria solani; application rate 10 ppm a.i.) [%] | Efficacy in % found (Venturia inaequalis; application rate 10 ppm a.i.) [%] |
| --- | --- | --- | --- | --- |
| CC(C)NC(=O)N1CC(=O)N(c2cc(Cl)cc(Cl)c2)C1=O [(B) Iprodione, Iprodione] | 70 | 3 | – | – |
| OC(Cc1ccccc1Cl)(Cn1nc[nH]c1=S)C1(Cl)CC1 (stereo not shown) [(A) Prothioconazole, Prothioconazole] | – | – | 50 | 43 |
